Residues, ends and D or L forms follow the SMILES beside them.
Legend:
APPSwe/PS1DE9 = conditions: mouse, in vivo, 50 mg/kg
Method: FIG. 4. Mouse brain distribution of Aβ1-6A2V (D) peptide 2 hours after the last intranasal administration: A) Control and B) Treated Mice. FIG. 5. Effect of Aβ1-6A2V(D) on Aβ oligomer formation in the brain: biochemical assessment. APPSwe/PS1DE9 were treated with Aβ1-6A2V(D) at 50 mg/kg for five months. Control group was treated intranasally with PBS. A: Levels of Aβ aggregates in soluble and insoluble brain fractions after 2.5 months of treatment. B: Levels of Aβ aggregates in soluble and insoluble brain fractions after five months of treatment. * p<0.01; *** p<0.001. FIG. 6. Effect of Aβ1-6A2V(D) on Aβ deposits in mouse brain: neuropathological assessment. A: APPSwe/PS1DE9 were treated with Aβ1-6A2V(D) daily for five months at 50 mg/kg. Control group (CTRL) was treated intranasally with PBS. Amyloid burden measured by plaque count. ** p<0.01; *** p<0,001. B: Immunohistochemistry with the 4G8 anti-Aβ antibody. FIG. 7. Effect of Aβ1-6A2V(D) on synaptopathy. Subcellular fractionation of hippocampal homogenates from mice treated with Aβ1-6A2V(D) (right columns) or PBS (left columns). Western blot analysis with antibodies against synaptic receptors (NMDA-2A, GluN2B, GluA1 and GluA2) and scaffold protein (PSD95). The treatment with Aβ1-6A2V(D) preserved synaptic integrity. […]

[1] = mouse, in vivo, 16.7 mg/kg
Method: FIG. 3. […] Mice were sacrificed 4 (A), 24 (B) and 48 (C) hours after the last administration.
To this end, preliminarily wild-type mice were treated once a week for 4 weeks at a dose of 16.7 mg/kg. Animals were sacrificed 4, 24, 48 hours from the last intranasal delivery.

CC(C)[C@@H](NC(=O)[C@H](N)CC(=O)O)C(=O)N[C@H](CCC(=O)O)C(=O)N[C@H](Cc1ccccc1)C(=O)N[C@H](CCCNC(=N)N)C(=O)N[C@H](Cc1c[nH]cn1)C(=O)O [Aβ1-6A2V(D)] (HELM PEPTIDE1{[dD].[dV].[dE].[dF].[dR].[dH]}$$$$V2.0; N-terminus and C-terminus assumed)
Diffusion of the peptide in brain tissue (APPSwe/PS1DE9): consistent diffusion of the peptide in brain tissue
Diffusion of the peptide in brain tissue [1]: consistent diffusion of the peptide in brain tissue
Presence of the peptide in cerebral cortex 48 hours after last treatment [1]: can be still observed in the cerebral cortex
